In patent publication US8173689B2 (Novartis AG, priority 2006, dated 2012) one finds inhibition data, which are given here for 18 compounds.

Molecules are shown by their SMILES. Read-outs that look alike come from different tables or passages of the source.

Assay [1] deals with T1, kinase domain of PDGFRβ (Homo sapiens, UniProt P09619).
T1 construct: The kinase domain of PDGFRβ was assayed in 50 mM Hepes; purchased Invitrogen P3082
In words: Inhibition of PDGFRb kinase signaling in an in vitro biochemical assay (alphascreen). Particulars: tested at about 1 μM, read-out: PDGFRβ percent inhibition. (Alpha assays give light when donor and acceptor beads are brought close together.)

The subject of assay [2] is MNFS60 (murine AML cells). Put plainly: Cell viability assay in MCSF dependent MNFS60 cells (Cell Titer Glo). In kind it is cell-based. Conditions: Mus musculus, tested at about 1 μM, read-out: M-NFS-60 CP percent inhibition. The method in brief: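 Compounds were serially diluted 3-fold in DMSO to 500× final and added to cells with MCSF at 10 ng/ml final. After 72 hrs at 37° C. under 5% CO2, viable cells were quantified by CellTiter-Glo luminescence; triplicate wells gave EC50 values by curve fitting.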

Assay [3] addresses T2, full-length human CSF-1R receptor (Homo sapiens, UniProt P07333).
T2 construct: transfected with the full-length human CSF-1R receptor cloned in house; expressed in transfected cells; host or cells: HEK293H (Invitrogen Cat. #11631017)
In words: In vitro inhibition of CSF-1R receptor tyrosine phosphorylation in transfected HEK293H cells stimulated with MCSF. In kind it is cell-based. Conditions: HEK293-H, tested at about 1 μM; HEK293H cells; read-out: pCSF1R percent inhibition. On the procedure: The lysate was then transferred to total CSF-1R antibody coated 96-well plates that had already been blocked with 3% Blocker A from Mesoscale discovery (MSD) for 2 hours and washed afterwards. Lysates were incubated overnight at 4° C. and the plates were then washed 4× with MSD Tris Wash Buffer. […] The plates were read on the Sector 6000 instrument (MSD). Raw data was imported in Abase and EC50s calculated with XL-fit data analysis software.

Assay [4] concerns the target T3, cytoplasmic domain of the human CSF-1R (Homo sapiens, UniProt P07333).
T3 construct: Recombinant protein corresponding to the cytoplasmic domain of the human CSF-1R; purchased Invitrogen Corporation, Carlsbad, Calif; PV3249
T3 sequence (P07333 539-972 limits assumed): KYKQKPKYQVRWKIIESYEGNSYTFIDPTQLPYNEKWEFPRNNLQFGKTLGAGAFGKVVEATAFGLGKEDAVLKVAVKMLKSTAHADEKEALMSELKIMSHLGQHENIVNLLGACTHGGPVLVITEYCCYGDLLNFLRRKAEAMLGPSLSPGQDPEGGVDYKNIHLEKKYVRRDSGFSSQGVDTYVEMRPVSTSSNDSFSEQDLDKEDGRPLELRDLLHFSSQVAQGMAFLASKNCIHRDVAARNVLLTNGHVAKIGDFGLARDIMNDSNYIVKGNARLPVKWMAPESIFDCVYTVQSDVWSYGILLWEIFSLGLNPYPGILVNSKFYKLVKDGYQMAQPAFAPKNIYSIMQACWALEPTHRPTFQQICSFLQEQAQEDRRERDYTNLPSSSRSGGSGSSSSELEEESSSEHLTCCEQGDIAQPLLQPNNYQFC
Put plainly: In vitro kinase assay for colony stimulating factor-1 receptor (AlphaScreen). In kind it is biochemical. Conditions: tested at about 1 μM, read-out: CSF-1R percent inhibition. The method in brief: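 Tyrosine phosphorylation of a peptide substrate by 4 nM recombinant cytoplasmic-domain enzyme is measured at 1 μM ATP in Mn2+/Mg2+-containing Hepes buffer, pH 7.5. Detection uses PT66 AlphaScreen beads after overnight incubation.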

For assay [5], the target named is T4, kinase domain of cKIT (Homo sapiens, UniProt P10721).
T4 construct: The kinase domain of cKIT was assayed in 50 mM Hepes; purchased Upstate 14-559
T4 sequence (P10721 589-937 limits assumed): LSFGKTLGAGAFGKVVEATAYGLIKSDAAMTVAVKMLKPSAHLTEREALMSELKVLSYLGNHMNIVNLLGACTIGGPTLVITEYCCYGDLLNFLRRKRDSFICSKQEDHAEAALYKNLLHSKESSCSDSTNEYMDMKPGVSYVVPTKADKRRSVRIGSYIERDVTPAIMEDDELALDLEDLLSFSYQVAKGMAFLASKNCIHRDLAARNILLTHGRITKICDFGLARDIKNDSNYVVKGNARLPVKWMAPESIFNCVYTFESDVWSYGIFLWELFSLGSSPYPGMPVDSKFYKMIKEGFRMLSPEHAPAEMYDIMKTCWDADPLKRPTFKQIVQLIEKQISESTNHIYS
Put plainly: Inhibition of cKIT kinase signaling in an in vitro biochemical assay (alphascreen). Particulars: tested at about 1 μM, read-out: cKit percent inhibition.

As usually defined, the inhibition is how much of the control response was suppressed.

T1 sequence (P09619 600-962 limits assumed): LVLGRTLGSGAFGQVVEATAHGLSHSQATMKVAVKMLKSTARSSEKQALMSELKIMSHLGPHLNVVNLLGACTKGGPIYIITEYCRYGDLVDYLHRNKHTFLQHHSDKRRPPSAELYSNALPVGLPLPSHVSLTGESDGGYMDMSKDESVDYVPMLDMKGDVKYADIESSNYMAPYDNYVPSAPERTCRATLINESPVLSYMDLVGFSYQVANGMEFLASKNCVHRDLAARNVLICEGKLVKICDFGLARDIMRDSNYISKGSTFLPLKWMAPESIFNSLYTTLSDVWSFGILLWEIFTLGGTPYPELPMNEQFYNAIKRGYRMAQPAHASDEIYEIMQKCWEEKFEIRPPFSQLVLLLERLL
T2 sequence (P07333 20-972): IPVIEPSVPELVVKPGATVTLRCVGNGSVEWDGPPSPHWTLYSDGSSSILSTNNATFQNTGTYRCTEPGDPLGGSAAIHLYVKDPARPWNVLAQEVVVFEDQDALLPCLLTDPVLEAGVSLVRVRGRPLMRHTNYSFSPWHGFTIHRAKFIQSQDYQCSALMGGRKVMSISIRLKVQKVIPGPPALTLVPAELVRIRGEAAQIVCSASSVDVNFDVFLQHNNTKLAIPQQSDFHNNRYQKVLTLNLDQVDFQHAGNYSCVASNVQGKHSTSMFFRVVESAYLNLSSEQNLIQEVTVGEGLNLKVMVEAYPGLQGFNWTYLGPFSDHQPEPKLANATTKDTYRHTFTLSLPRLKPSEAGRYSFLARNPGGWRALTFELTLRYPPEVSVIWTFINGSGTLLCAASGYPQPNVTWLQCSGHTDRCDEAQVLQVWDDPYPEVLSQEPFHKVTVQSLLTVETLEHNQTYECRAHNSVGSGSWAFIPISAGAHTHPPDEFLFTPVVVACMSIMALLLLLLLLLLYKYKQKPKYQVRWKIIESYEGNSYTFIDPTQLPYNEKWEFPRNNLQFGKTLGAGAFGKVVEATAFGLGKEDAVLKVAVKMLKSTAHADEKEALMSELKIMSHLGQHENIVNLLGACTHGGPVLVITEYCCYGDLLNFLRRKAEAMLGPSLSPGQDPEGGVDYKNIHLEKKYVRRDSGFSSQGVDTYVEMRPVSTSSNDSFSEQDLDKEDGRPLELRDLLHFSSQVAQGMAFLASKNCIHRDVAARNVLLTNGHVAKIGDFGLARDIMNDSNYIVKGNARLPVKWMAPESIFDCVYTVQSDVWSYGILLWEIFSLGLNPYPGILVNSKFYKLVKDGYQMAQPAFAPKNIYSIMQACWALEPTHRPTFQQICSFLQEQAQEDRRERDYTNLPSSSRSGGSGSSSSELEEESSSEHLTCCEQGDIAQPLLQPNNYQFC

As for `CC(=O)Nc1cc(Oc2ccc3nc(NCc4ccccc4Cl)oc3c2)ccn1` [Compound 32, N-{4-[2-(2-Chloro-benzylamino)-benzooxazol-6-yloxy]-pyridin-2-yl}-acetamide], the inhibition at 1 µM was found to be 22% in assay [1], 70% in assay [2] (MNFS60 cells), 93% in assay [3] and 100% in assay [4].

Take `CNC(=O)c1cc(Oc2ccc3nc(NC4CCCC(C)C4)oc3c2)ccn1` (centres unmarked) [Compound 10, 4-[2-(3-Methyl-cyclohexyl-amino)-benzooxazol-6-yloxy]-pyridine-2-carboxylic acid methylamide]: the inhibition at 1 µM in assay [1] was 35%; in assay [2] (MNFS60 cells), 62%; in assay [3] it was 79%; in assay [4], 99%.

For `COc1cc2nccc(Oc3ccc4nc(Nc5ccc6c(c5)OCCO6)oc4c3)c2cc1OC` [Compound 4, (2,3-Dihydro-benzo[1,4]dioxin-6-yl)-[6-(6,7-dimethoxy-quinolin-4-yloxy)-benzooxazol-2-yl]-amine], the figures for the inhibition at 1 µM in assay [2] (MNFS60 cells), in assay [3] and in assay [4] were 100%, 91% and 100%, respectively.

For `CNC(=O)c1cc(Oc2ccc3nc(N[C@H]4CCCC[C@@H]4O)sc3c2)ccn1` [Compound 137, 4-[2-((1S,2S)-2-Hydroxy-cyclohexylamino)-benzothiazol-6-yloxy]-pyridine-2-carboxylic acid methylamide], the inhibition at 1 µM in assay [2] (MNFS60 cells) is 100%; in assay [3] it was 98%; in assay [4] it was 100%.

`CNC(=O)c1cc(Oc2ccc3nc(NCc4ccc(Cl)cc4)oc3c2)ccn1` [Compound 27, 4-[2-(4-Chloro-benzylamino)-benzooxazol-6-yloxy]-pyridine-2-carboxylic acid methylamide]: the inhibition at 1 µM stood at 28% in assay [1], 97% in assay [2] (MNFS60 cells), 96% in assay [3] and 99% in assay [4].

With `CNC(=O)c1cc(Oc2ccc3nc(N[C@H](C)c4ccccc4)oc3c2)ccn1` [Compound 2, 4-[2-((R)-1-Phenyl-ethylamino)-benzooxazol-6-yloxy]-pyridine-2-carboxylic acid methylamide], the inhibition at 1 µM in assay [2] (MNFS60 cells) was found to be 63%; in assay [3], 80%; in assay [4], 100%.

For `CNC(=O)c1cc(Oc2ccc3nc(NCc4cccc(Cl)c4)oc3c2)ccn1` [Compound 42, 4-[2-(3-Chloro-benzylamino)-benzooxazol-6-yloxy]-pyridine-2-carboxylic acid methylamide], the inhibition at 1 µM was 12% in assay [1], 100% in assay [2] (MNFS60 cells), 97% in assay [3] and 99% in assay [4].

`CNC(=O)c1cc(Oc2ccc3nc(NCc4ccccc4)oc3c2)ccn1` [Compound 41, 4-(2-Benzylamino-benzooxazol-6-yloxy)-pyridine-2-carboxylic acid methylamide]: the inhibition at 1 µM in assay [1] was found to be 30%; in assay [2] (MNFS60 cells), 100%; in assay [3] it was 94%; in assay [4] it was 100%.

Regarding `CNC(=O)c1cc(Oc2ccc3nc(N[C@H]4C[C@H]5C[C@@H]([C@@H]4C)C5(C)C)oc3c2)ccn1` [Compound 13, 4-[2-((1S,2S,3S,5R)-2,6,6-Trimethyl-bicyclo[3.1.1]hept-3-ylamino)-benzooxazol-6-yloxy]-pyridin-2-carboxylic acid methylamide], the inhibition at 1 µM in assay [1] is 65%; in assay [2] (MNFS60 cells), 76%; in assay [3] it was 75%; in assay [4], 99%.

Consider `CNC(=O)c1cc(Oc2ccc3nc(Nc4ccccc4CN4CCOCC4)oc3c2)ccn1` [Compound 25, 4-[2-(2-Morpholin-4-ylmethyl-phenylamino)-benzooxazol-6-yloxy]-pyridine-2-carboxylic acid methylamide], for which the inhibition at 1 µM in assay [1] amounted to 7%; in assay [2] (MNFS60 cells), 42%; in assay [3], 35%; in assay [4], 98%.

For `CNC(=O)c1cc(Oc2ccc3nc(NCc4ccc(Cl)cc4Cl)oc3c2)ccn1` [Compound 9, 4-[2-(2,4-Dichloro-benzylamino)-benzooxazol-6-yloxy]-pyridin-2-carboxylic acid methylamide], the inhibition at 1 µM in assay [2] (MNFS60 cells) was determined as 58%; in assay [3] it was 75%; in assay [4] it was 99%.

As to `CNC(=O)c1cc(Oc2ccc3nc(NC[C@@H]4C[C@H]5CC[C@@H]4C5(C)C)oc3c2)ccn1` [Compound 15, 4-{2-[((1S,2R,4R)-7,7-Dimethyl-bicyclo[2.2.1]hept-2-ylmethyl)-amino]-benzooxazol-6-yloxy}-pyridin-2-carboxylic acid methylamide], the inhibition at 1 µM in assay [1] was 88%; in assay [2] (MNFS60 cells), 97%; in assay [3] it was 92%; in assay [4], 100%.

Take `CNC(=O)c1cc(Oc2ccc3nc(N[C@@H](C)c4ccccc4)oc3c2)ccn1` [Compound 7, 4-[2-((S)-1-Phenyl-ethylamino)-benzooxazol-6-yloxy]-pyridin-2-carboxylic acid methylamide]: the results for the inhibition at 1 µM in assay [2] (MNFS60 cells), in assay [3] and in assay [4] were 17%, 21% and 94%, respectively.

For `CNC(=O)c1cc(Oc2ccc3nc(NCc4ccccc4Cl)oc3c2)ccn1` [Compound 8, 4-[2-(2-Chloro-benzylamino)-benzooxazol-6-yloxy]-pyridin-2-carboxylic acid methylamide], the inhibition at 1 µM in assay [2] (MNFS60 cells) came to 60%; in assay [3], 92%; in assay [4], 99%.

In the case of `COCCNc1cc(Oc2ccc3nc(NCC4CCCCC4)sc3c2)ccn1` [Example 343, N-(cyclohexylmethyl)-6-(2-(2-methoxyethylamino)pyridin-4-yloxy)benzo[d]thiazol-2-amine], the inhibition at 1 µM in assay [5] is 59%; in assay [1], 28%; in assay [2] (MCSF dependent MNFS60 cells), 57%; in assay [4], 100%.

Take `CNC(=O)c1cc(Oc2ccc3nc(NCc4cc(Cl)ccc4OC)oc3c2)ccn1` [Compound 114, 4-[2-(5-Chloro-2-methoxy-benzylamino)-benzooxazol-6-yloxy]-pyridine-2-carboxylic acid methylamide]: the inhibition at 1 µM in assay [5] is 92%; in assay [1], 15%; in assay [2] (MNFS60 cells) it was 36%; in assay [4], 100%.

On to `CNC(=O)c1cc(Oc2ccc3nc(Nc4ccc5c(c4)OCCO5)oc3c2)ccn1` [Compound 5, 4-[2-(2,3-Dihydro-benzo-[1,4]dioxin-6-ylamino)-benzooxazol-6-yloxy]-pyridin-2-carboxylic acid methylamide], for which the values for the inhibition at 1 µM in assay [2] (MNFS60 cells), in assay [3] and in assay [4] were 100%, 93% and 99%, respectively.

Regarding `O[C@@H]1CCCC[C@H]1Nc1nc2ccc(Oc3ccnc(-c4cncs4)c3)cc2s1` [Compound 157], the inhibition at 1 µM in assay [5] (compounds of Table 3) worked out at 43%; in assay [1] (compounds of Table 3) it was 17%; in assay [2] (compounds of Table 3), 42%; in assay [4] (compounds of Table 3), 100%.
